As usually defined, the EC50 is the concentration at which the effect is half-maximal.

The assay addresses Glutamate NMDA receptor; GRIN1/GRIN2A (Homo sapiens, UniProt Q05586+Q12879). Nature of the assay: TBD: TBD. Type of assay: protein-complex assay.

Chain of Glutamate NMDA receptor; GRIN1/GRIN2A (Q12879 whole entry, other chains not shown): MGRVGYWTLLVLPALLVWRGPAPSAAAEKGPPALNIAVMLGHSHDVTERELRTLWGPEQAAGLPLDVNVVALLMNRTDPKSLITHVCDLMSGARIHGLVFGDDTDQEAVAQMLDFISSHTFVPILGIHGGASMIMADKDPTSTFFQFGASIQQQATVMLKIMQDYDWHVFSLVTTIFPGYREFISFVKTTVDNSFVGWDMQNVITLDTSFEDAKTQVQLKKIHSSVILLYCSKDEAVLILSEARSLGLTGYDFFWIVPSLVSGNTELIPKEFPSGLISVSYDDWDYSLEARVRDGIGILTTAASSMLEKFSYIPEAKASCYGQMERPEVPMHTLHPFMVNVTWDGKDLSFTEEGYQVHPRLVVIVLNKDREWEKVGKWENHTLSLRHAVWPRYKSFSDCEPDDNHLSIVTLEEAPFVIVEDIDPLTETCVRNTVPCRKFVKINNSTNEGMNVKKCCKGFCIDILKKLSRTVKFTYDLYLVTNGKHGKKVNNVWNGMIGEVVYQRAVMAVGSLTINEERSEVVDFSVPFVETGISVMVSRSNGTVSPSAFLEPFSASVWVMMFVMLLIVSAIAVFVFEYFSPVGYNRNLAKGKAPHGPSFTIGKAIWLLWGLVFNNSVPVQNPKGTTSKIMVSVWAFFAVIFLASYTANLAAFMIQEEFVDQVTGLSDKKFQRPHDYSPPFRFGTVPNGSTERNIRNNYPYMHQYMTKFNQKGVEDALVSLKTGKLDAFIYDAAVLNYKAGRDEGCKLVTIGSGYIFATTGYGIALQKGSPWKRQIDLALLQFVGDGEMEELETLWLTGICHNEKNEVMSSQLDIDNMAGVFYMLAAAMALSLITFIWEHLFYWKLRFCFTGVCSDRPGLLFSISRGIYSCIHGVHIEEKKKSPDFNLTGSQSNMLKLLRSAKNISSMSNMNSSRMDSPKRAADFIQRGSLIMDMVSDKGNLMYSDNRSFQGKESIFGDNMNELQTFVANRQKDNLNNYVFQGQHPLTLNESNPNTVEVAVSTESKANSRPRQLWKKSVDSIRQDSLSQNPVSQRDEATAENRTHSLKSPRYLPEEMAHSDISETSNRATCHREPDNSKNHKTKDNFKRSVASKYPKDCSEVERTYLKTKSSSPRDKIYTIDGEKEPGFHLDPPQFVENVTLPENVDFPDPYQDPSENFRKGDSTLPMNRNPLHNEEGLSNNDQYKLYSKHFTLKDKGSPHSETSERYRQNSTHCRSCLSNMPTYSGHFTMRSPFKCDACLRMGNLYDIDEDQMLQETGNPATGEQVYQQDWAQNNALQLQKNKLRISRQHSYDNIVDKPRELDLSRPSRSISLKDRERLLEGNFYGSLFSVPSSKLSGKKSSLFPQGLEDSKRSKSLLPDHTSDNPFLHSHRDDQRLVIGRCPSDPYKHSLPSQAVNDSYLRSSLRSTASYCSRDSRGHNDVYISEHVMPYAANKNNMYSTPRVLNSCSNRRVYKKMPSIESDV

As to `CCN(Cc1cc(=O)n2c(OC)cccc2n1)c1ccc(F)cc1`, the EC50 was 4.4 µM.

The values are drawn from ChEMBL document CHEMBL5726897, “Pyridopyrimidinones and methods of use thereof” (2019).
